From patent US10246448B2, “4-hydroxy-2-phenyl-1,3-thiazol-5-yl methanone derivatives as TRPM8 antagonists” (DOMPÉ FARMACEUTICI S.P.A., priority 2015, dated 2019)

Tests used:
[1] = Metabolic stability in rat microsomes, Phase I assay; format: in vitro ADME; conditions: pH 7.4; rat liver microsomes 0.5 mg/ml, compound 1 μM, NADP cofactors mixture, 37° C.; read-out: Metabolic Stability (t1/2, min) Phase1
Procedure: Compounds 1, 2, 8 and 9 in duplicate were dissolved in DMSO and pre-incubated, at the final concentration of 1 μM, for 10 min at 37° C. in potassium phosphate buffer 50 mM pH 7.4, 3 mM MgCl2, with rat liver microsomes (Xenotech) at the final concentration of 0.5 mg/ml.
After the pre-incubation period, reactions were started by adding the cofactors mixture (NADP, Glc6P, Glc6P-DH in 2% Sodium bicarbonte); samples (50 μl) were taken at time 0, 10, 20, 30 and 60 min added to 150 μl of acetonitrile with Verapamil 0.02 μM as Internal Standard (IS) to stop the reaction. After centrifugation the supernatants were analysed by LC-MS/MS.
A control sample without cofactors was added in order to check the stability of test compounds in the matrix after 60 min. 7-Ethoxycoumarin and propranolol were added as reference standards.

human TRPM8 [2] = biological target: T1, human TRPM8 (Homo sapiens, UniProt Q7Z2W7); test: In vitro cold stimulation assay
T1 sequence (Q7Z2W7 whole entry): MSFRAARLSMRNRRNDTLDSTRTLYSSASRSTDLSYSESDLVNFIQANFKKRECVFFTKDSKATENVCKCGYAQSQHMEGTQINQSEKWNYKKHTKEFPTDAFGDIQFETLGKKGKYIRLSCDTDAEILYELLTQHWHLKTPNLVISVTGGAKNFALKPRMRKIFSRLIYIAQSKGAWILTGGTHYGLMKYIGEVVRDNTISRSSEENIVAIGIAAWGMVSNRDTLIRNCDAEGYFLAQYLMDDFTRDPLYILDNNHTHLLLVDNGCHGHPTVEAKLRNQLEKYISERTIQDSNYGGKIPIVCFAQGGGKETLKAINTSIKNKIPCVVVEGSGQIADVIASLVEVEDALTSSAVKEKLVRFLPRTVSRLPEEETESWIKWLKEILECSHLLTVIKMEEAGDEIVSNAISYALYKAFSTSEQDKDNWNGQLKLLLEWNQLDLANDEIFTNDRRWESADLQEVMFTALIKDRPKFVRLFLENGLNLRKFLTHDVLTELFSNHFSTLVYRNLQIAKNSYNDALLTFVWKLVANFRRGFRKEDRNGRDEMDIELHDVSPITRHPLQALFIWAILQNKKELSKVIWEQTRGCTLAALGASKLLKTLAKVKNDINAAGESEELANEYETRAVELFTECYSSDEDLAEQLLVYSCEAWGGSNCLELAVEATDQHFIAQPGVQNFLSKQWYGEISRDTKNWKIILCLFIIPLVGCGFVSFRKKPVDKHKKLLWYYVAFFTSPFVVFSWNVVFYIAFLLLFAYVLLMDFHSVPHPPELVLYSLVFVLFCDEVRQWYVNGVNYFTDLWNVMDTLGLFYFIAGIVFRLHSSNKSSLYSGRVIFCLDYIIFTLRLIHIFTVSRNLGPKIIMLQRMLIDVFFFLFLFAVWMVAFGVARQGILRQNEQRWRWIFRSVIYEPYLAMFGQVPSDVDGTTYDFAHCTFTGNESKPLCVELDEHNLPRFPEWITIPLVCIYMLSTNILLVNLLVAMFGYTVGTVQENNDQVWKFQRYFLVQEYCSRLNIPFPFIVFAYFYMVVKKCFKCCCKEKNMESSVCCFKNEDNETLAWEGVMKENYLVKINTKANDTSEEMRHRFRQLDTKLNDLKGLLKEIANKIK
Procedure: The TRPM8 antagonisticic activity of all 26 compounds was determined in an in vitro cold stimulation assay.
3-4 days after seeding (˜80% confluent cells), the medium was removed and cells were loaded by a solution of Screen Quest™ Fluo-8 NW dye (ABS Bioquest, Sunnyvale, Calif., USA) in the dark. Dye-loaded cell flasks were incubated for 45 minutes at room temperature in the dark and the Fluo-8 NW solution was then removed and cells were seeded in the 96 Assay Plates (MicroAmp™ Optical 96-Well Reaction Plates; Applied Biosystems, Life technologies) at 100,000 cells/'well (20 μl/well). […] All data point determinations were performed in duplicate before a mean value was calculated, including error bars representing the standard error of the mean.

[3] = Metabolic stability in rat microsomes, Phase II assay; format: in vitro ADME; conditions: pH 7.4; rat liver microsomes 0.5 mg/mL, Alamethicin activated, UDPGA, compound 1 μM, 37° C.; read-out: Metabolic Stability (t1/2, min) Phase2
Procedure: Rat liver microsomes (0.5 mg/mL final conc.) were incubated in ice for 15 min in 50 mM potassium phosphate buffer pH 7.4, 3 mM MgCl2 and activated with Alamethicin 50 μg/mg microsomal protein. Samples were transferred at 37° C. and compounds 1, 2, 8 and 9, dissolved in DMSO, were added in duplicate at the final concentration of 1 μM. After 5 min, reaction is started by adding 25 μl of UDPGA (16.15 mg/ml in 0.2% Sodium Bicarbonate). Samples were taken at time 0, 10, 20, 30 and 60 min added to 150 μl of acetonitrile with Verapamil 0.02 uM as Internal Standard (IS) to stop the reaction. After centrifugation the supernatants were analysed by LC-MS/MS. 7-Hydroxycoumarin was added as reference standard.

human TRPM8 [4] = biological target: T1, human TRPM8; test: In vitro TRPM8 assay: intracellular calcium levels, Ca2+ sensitive fluorescent dye (FLIPR), agonist Icilin or Cooling Agent 10; format: cell-based; parameters: expressed in transfected cells; conditions: HEK-293 cells stably expressing human TRPM8
Procedure: The TRPM8 antagonistic activity of all 26 compounds was determined by measuring changes in intracellular calcium levels using a Ca^+2 sensitive fluorescent dye. The experiments were performed using HEK-293 cells stably expressing the human TRPM8. Cells were seeded 10000 cells/well in 384 plates coated by Poly-D-Lysine MATRIX black/clear bottom (Thermo Scientific, Waltham, Mass. USA) in complete medium and grown overnight at 37° C., 5% CO2. 24 h after seeding, cell culture media was removed, cells were washed with Tyrode's assay buffer and then loaded with the fluorescent Ca^+2 indicator Fluo-4 NW dye (Molecular Probes, Life Technologies, Paisley, UK) supplemented with water-soluble Probenecid (Molecular Probes). Dye loaded cell plates were incubated for 1 h at room temperature. The compounds or vehicle were added and the kinetic response was monitored by a fluorimetric imaging plate ([…]; Molecular Devices, Sunnyvale, Calif., USA) over a period of five minutes (300 seconds). A second injection 5 minutes later of the reference agonist Cooling Agent 10 or Icilin at EC80 concentration was performed. The signal of the emitted fluorescence was recorded during additional three minutes. Data were analyzed by Spotfire DecisionSite version 9.1.1. The bioactivity exerted by the compounds or vehicle was expressed as a percent inhibition and IC50 values were then calculated.

[5] = agonist Cooling Agent 10 at EC80, read-out: Ca2+ (IC50 μM) Cool 10
[6] = agonist Icilin at EC80, read-out: Ca2+ (IC50 μM) Icilin

| Compound | half-life at 1 μM [1] | IC50 (human TRPM8 [2]) | half-life at 1 μM [3] | IC50 (human TRPM8 [4]; [5]) | IC50 (human TRPM8 [4]; [6]) |
| --- | --- | --- | --- | --- | --- |
| O=C(c1ccncc1)c1sc(-c2cccc(F)c2)nc1O [Example 24, [2-(3-fluorophenyl)-4-hydroxy-1,3-thiazol-5-yl](pyridin-4-yl)methanone] | 40 min | 525 nM | 48 min | 0.601 µM | 0.624 µM |
| O=C(c1sc(-c2cccc(F)c2)nc1O)n1ccnc1 [Example 25, [2-(3-fluorophenyl)-4-hydroxy-1,3-thiazol-5-yl](1H-imidazol-1-yl)methanone] | 45 min | 972 nM | 40 min | 1.25 µM | 1.25 µM |
| O=C(c1sc(-c2cccc(F)c2)nc1O)n1cccn1 [Example 26, [2-(3-fluorophenyl)-4-hydroxy-1,3-thiazol-5-yl](1H-pyrazol-1-yl)methanone] | 89 min | 1320 nM | 86 min | 1.65 µM | 1.32 µM |
| O=C(c1sc(-c2cccc(F)c2)nc1O)N1CCCCCO1 [Example 27, [2-(3-fluorophenyl)-4-hydroxy-1,3-thiazol-5-yl](1,2-oxazepan-2-yl)methanone] | 75 min | 46 nM | 63 min | 0.121 µM | 0.143 µM |
| O=C(c1sc(-c2cccc(F)c2)nc1O)N1CC2(CC2)CO1 [Example 28, [2-(3-fluorophenyl)-4-hydroxy-1,3-thiazol-5-yl](5-oxa-6-azaspiro[2.4]heptan-6-yl) methanone] | 73 min | 54 nM | 61 min | 0.086 µM | 0.143 µM |
| CC1CCN(C(=O)c2sc(-c3cccc(F)c3)nc2O)O1 (stereo not drawn) [Example 29, [2-(3-fluorophenyl)-4-hydroxy-1,3-thiazol-5-yl](5-methyl-1,2-oxazolidin-2-yl) methanone] | 91 min | 31 nM | 78 min | 0.091 µM | 0.111 µM |
| O=C(c1sc(-c2cccc(F)c2)nc1O)N1CC2CCCC2O1 (stereo not drawn) [Example 30, [2-(3-fluorophenyl)-4-hydroxy-1,3-thiazol-5-yl](hexahydro-2H-cyclopenta[d][1,2]oxazol-2-yl)methanone] | 82 min | 69 nM | 85 min | 0.084 µM | 0.087 µM |
| O=C(c1sc(-c2cccc(F)c2)nc1O)n1ccnn1 [Example 31, [2-(3-fluorophenyl)-4-hydroxy-1,3-thiazol-5-yl](1H-1,2,3-triazol-1-yl)methanone] | 85 min | 50 nM | 67 min | 0.94 µM | 0.082 µM |
| Cn1nnnc1C(=O)c1sc(-c2cccc(F)c2)nc1O [Example 32, [2-(3-fluorophenyl)-4-hydroxy-1,3-thiazol-5-yl](1-methyl-1H-tetrazol-5-yl)methanone] | 81 min | 63 nM | 69 min | 0.098 µM | 0.101 µM |
